Assay results taken from patent US20230051589A1, “COMPOUNDS AND COMPOSITIONS FOR TREATING CONDITIONS ASSOCIATED WITH NLRP ACTIVITY” (Novartis AG, priority 2018, published 2023).
pIC50: −log10 of the molar value.

System: IL-1β production in PMA-differentiated THP-1 cells
Test: IL-1β production in PMA-differentiated THP-1 cells stimulated with gramicidin (hTHP-1 assay, 2% fetal bovine serum; Procedures 1-3)
Assay type: cell-based, human
Conditions: Homo sapiens, THP-1, Table B1; hTHP-1 assay containing 2% fetal bovine serum, gramicidin stimulation, IL-1β readout; read-out: hTHP-1 IC50 (average)
Summary of the method: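 PMA-primed THP-1 cells (20 ng/ml PMA, 16-18 h) in RPMI with 2% FBS were pre-incubated with compounds for 1 h, from 100 μM downward in 3-fold steps (0.37% DMSO final), then stimulated with 5 μM gramicidin for 2 h. IL-1β in the supernatant was quantified by HTRF.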

pIC50 | SMILES
6.70 to 7.40 | C[C@@](O)(CO)c1cc(F)c([S@](N)(=O)=NC(=O)Nc2c3c(c(C#N)c4c2CCC4)CCC3)s1 (single isomer, unassigned) [Compound 411a]
6.70 to 7.40 | CC1CCc2c1cc1c(c2NC(=O)N=[S@@](N)(=O)c2cnc(C(C)(C)O)s2)CCC1 (single isomer, unassigned) [Example 323, (R, R) or (R, S)-2-(2-hydroxypropan-2-yl)-N′-((1-methyl-1,2,3,5,6,7-hexahydro-s-indacen-4-yl)carbamoyl)thiazole-5-sulfonimidamide]

Same assay, conditions: Homo sapiens, THP-1, Table B3; hTHP-1 assay containing 2% fetal bovine serum, gramicidin stimulation, IL-1β readout; read-out: hTHP-1 IC50

pIC50 | SMILES
6.70 to 7.40 | CN1CCc2sc(S(N)(=O)=NC(=O)Nc3c4c(cc5c3CC5)CCC4)c(F)c2C1 (stereo not drawn) [Example 769, 3-Fluoro-5-methyl-N′-((2,4,5,6-tetrahydro-1H-cyclobuta[f]inden-3-yl)carbamoyl)-4,5,6,7-tetrahydrothieno[3,2-c]pyridine-2-sulfonimidamide]
6.00 to 6.70 | NS(=O)(=NC(=O)Nc1c2c(cc3c1CC3)CCC2)c1sc2c(c1F)COCC2 (stereo not drawn) [Example 770, 3-Fluoro-N′-((2,4,5,6-tetrahydro-1H-cyclobuta[f]inden-3-yl)caibamoyl)-6,7-dihydro-4H-thieno[3,2-c]pyran-2-sulfonimidamide]

Same assay, conditions: Homo sapiens, THP-1, hTHP-1 assay containing 2% fetal bovine serum, Table B2, class symbols; read-out: IC50

pIC50 | SMILES
4.52 to 5.30 | N[S@](=O)(=NC(=O)Nc1c2c(cc3c1CCC3)CCC2)c1ccc(C2CCNC2)cc1F (single isomer, unassigned) [Example 501, (S) or (R)-2-fluoro-N′-((1,2,3,5,6,7-hexahydro-s-indacen-4-yl)carbamoyl)-4-(pyrrolidin-3-yl)benzenesulfonimidamide]
5.30 to 6.00 | CNC(C)(C)c1ccc(S(N)(=O)=NC(=O)Nc2c3c(cc4c2CCC4)CCC3)cc1 (stereo not drawn) [Example 486, N′-((1,2,3,5,6,7-hexahydro-s-indacen-4-yl)carbamoyl)-4-(2-(methylamino)propan-2-yl) benzenesulfonimidamide]
5.30 to 6.00 | CC(C)(O)c1nc(CO)c([S@](N)(=O)=NC(=O)Nc2c3c(cc4c2C(=O)CC4)CCC3)s1 [Compound 914b]
6.00 to 6.70 | CN1CCc2cc(S(N)(=O)=NC(=O)Nc3c4c(cc5c3CCC5)CCC4)sc2C1 (stereo not drawn) [Example 479, N′-((1,2,3,5,6,7-hexahydro-s-indacen-4-yl)carbamoyl)-6-methyl-4,5,6,7-tetrahydrothieno[2,3-c]pyridine-2-sulfonimidamide]
6.70 to 7.40 | CC(=O)NC[C@@](C)(O)c1ncc(S(N)(=O)=NC(=O)Nc2c3c(cc4c2CCC4)CCC3)s1 (stereo partly drawn) [Example 675, N-((2R)-2-(5-(N′-((1,2,3,5,6,7-hexahydro-s-indacen-4-yl)carbamoyl)sulfamidimidoyl)thiazol-2-yl)-2-hydroxypropyl)acetamide]
4.52 to 5.30 | CC(C)c1cnc([S@](N)(=O)=NC(=O)Nc2c3c(cc4c2CCC4)CCC3)c(F)c1 [Compound 903b]

Same assay, conditions: Homo sapiens, THP-1, hTHP-1 assay containing 2% fetal bovine serum, Table B2, given as bound; read-out: IC50

pIC50 | SMILES
< 4.52 | CC(C)n1nc([S@](N)(=O)=NC(=O)Nc2c3c(cc4c2C(=O)CC4)CCC3)cc1C(C)(C)O [Compound 908a]
< 4.52 | CN1CCc2ccc(S(N)(=O)=NC(=O)Nc3c4c(cc5c3CCC5)CCC4)cc2C1 (single isomer, unassigned) [Example 584, (S) or (R)-N′-((1,2,3,5,6,7-hexahydro-s-indacen-4-yl)carbamoyl)-2-methyl-1,2,3,4-tetrahydroisoquinoline-7-sulfonimidamide]

Same assay, conditions: Table B3; hTHP-1 assay containing 2% fetal bovine serum, gramicidin stimulation, IL-1β readout; read-out: hTHP-1 IC50

pIC50 | SMILES
< 4.52 | COC1CCc2c(csc2S(N)(=O)=NC(=O)Nc2c3c(cc4c2CCC4)CCC3)C1 (single isomer, unassigned) [Example 853, (R, S) or (S, S)-N′-((1,2,3,5,6,7-hexahydro-s-indacen-4-yl)carbamoyl)-5-methoxy-4,5,6,7-tetrahydrobenzo[c]thiophene-1-sulfonimidamide]
5.30 to 6.00 | NS(=O)(=NC(=O)Nc1c2c(cc3c1CCC3)CCC2)c1ccc([C@@H]2CCCN2)s1 (single isomer, unassigned) [Example 822, (S) or (R) -N′-((1,2,3,5,6,7-hexahydro-s-indacen-4-yl)carbamoyl)-5-((S)-pyrrolidin-2-yl)thiophene-2-sulfonimidamide]
6.00 to 6.70 | CC(NC1CCC1)c1ccc(S(N)(=O)=NC(=O)Nc2c3c(cc4c2CC4)CCC3)c(F)c1 (single isomer, unassigned) [Example 848, (S, R) or (R, R) -4-(1-(cyclobutylamino)ethyl)-2-fluoro-N′-((2,4,5,6-tetrahydro-1H-cyclobula[f]inden-3-yl)carbamoyl)benzenesulfonimidamide]
5.30 to 6.00 | CCn1ccc(S(N)(=O)=NC(=O)Nc2c3c(cc4c2CC4)CCC3)n1 (single isomer, unassigned) [Example 826, (S) or (R) -1-ethyl-N′-((2,4,5,6-tetrahydro-1H-cyclobuta[f]inden-3-yl)carbamoyl)-1H-pyrazole-3-sulfonimidamide]
7.40 to 8.10 | NS(=O)(=NC(=O)Nc1c2c(cc3c1CC3)CCC2)c1cc2c(s1)CCNC2 (single isomer, unassigned) [Example 716]
4.52 to 5.30 | NS(=O)(=NC(=O)Nc1c2c(cc3c1CCC3)CCC2)c1ccc(C2CCN2)cc1 (single isomer, unassigned) [Example 864, (R, S) or (S, S)-4-(azetidin-2-yl)-N′-((1,2,3,5,6,7-hexahydro-5-indacen-4-yl)carbamoyl)benzenesulfonimidamide]
4.52 to 5.30 | CN(C)CC(C)(C)c1ccc(S(N)(=O)=NC(=O)Nc2c3c(cc4c2CCC4)CCC3)cc1 (single isomer, unassigned) [Example 810, (S) or (R)-4-(1-(dimethylamino)-2-methylpropan-2-yl)-N′-((1,2,3,5,6,7-hcxahydro-s-indaccn-4-yl)carbamoyl)benzenesulfonimidamide]

Same assay, conditions: hTHP-1 assay containing 2% fetal bovine serum, Table B2, class symbols; read-out: IC50

SMILES | pIC50
COCc1nc(C(C)(C)O)sc1S(N)(=O)=NC(=O)Nc1c2c(c(C#N)c3c1CCC3)CCC2 (single isomer, unassigned) [Example 533, (R) or (S)-N′-((8-cyano-1,2,3,5,6,7-hexahydro-s-indacen-4-yl)carbamoyl)-2-(2-hydroxypropan-2-yl)-4-(methoxymethyl) thiazole-5-sulfonimidamide] | 6.00 to 6.70
Cc1c(C2CC2)cc2c(c1NC(=O)N=[S@](N)(=O)c1cc(C(C)(C)O)cs1)CCC2 (single isomer, unassigned) [Example 521, (S) or (R)-N′-((6-cyclopropyl-5-methyl-2,3-dihydro-1H-inden-4-yl)carbamoyl)-4-(2-hydroxyprepan-2-yl)thiophene-2-sulfonimidamide] | 5.30 to 6.00
CC(O)(CO)c1cc(F)c(S(N)(=O)=NC(=O)Nc2c3c(c(C#N)c4c2CCC4)CCC3)s1 (stereo not drawn) [Example 443, N′-((8-cyano-1,2,3,5,6,7-hexahydro-s-indacen-4-yl)carbamoyl)-5-(1,2-dihydroxypropan-2-yl)-3-fluorothiophene-2-sulfonimidamide] | 6.70 to 7.40
CNCC1(c2ccc(S(N)(=O)=NC(=O)Nc3c4c(cc5c3CCC5)CCC4)c(F)c2)CC1 (single isomer, unassigned) [Example 528, (R) or (S)-2-fluoro-N′-((1,2,3,5,6,7-hexahydro-s-indacen-4-yl)carbamoyl)-4-(1-((methylamino)methyl)cyclopropyl) benzenesulfonimidamide] | 6.00 to 6.70
CC(O)(CO)c1ncc(S(N)(=O)=NC(=O)Nc2c3c(cc4c2CCC4)CCC3)s1 (stereo not drawn) [Example 436, 2-(1,2-Dihydroxypropan-2-yl)-N′-((1,2,3,5,6,7-hexahydro-s-indacen-4-yl)carbamoyl)thiazole-5-sulfonimidamide] | 7.40 to 8.10

Continued, values first:

pIC50 | SMILES
6.70 to 7.40 | CC(C)n1nc(S(N)(=O)=NC(=O)Nc2c3c(c(C#N)c4c2CCC4)CCC3)cc1CO (single isomer, unassigned) [Example 548, (R) or (S)-N′-((8-cyano-1,2,3,5,6,7-hexahydro-s-indacen-4-yl)carbamoyl)-5-(hydroxymethyl)-1-isopropyl-1H-pyrazole-3-sulfonimidamide]
7.40 to 8.10 | CC(C)(O)c1csc(S(N)(=O)=NC(=O)Nc2c3c(cc4c2CC4)CCC3)c1 (single isomer, unassigned) [Example 560, (R) or (S)-4-(2-hydroxypropan-2-N′-((2,4,5,6-tetrahydro-1H-cyclobuta[f]inden-3 - y])carbamoyl) thiophene-2-sulfonimidamide]
4.52 to 5.30 | CC(C)(O)c1cc(F)c(S(N)(=O)=NC(=O)Nc2c3c(cc4c2C(=O)CC4)CCC3)s1 (single isomer, unassigned) [Example 538, (S) or (R)-3-fluoro-5-(2-hydroxypropan-2-yl)-N′-((3-oxo-1,2,3,5,6,7-hexahydro-s-indacen-4-yl)carbamoyl) thiophene-2-sulfonimidamide]
7.40 to 8.10 | CC(C)(O)c1cnc(S(N)(=O)=NC(=O)Nc2c3c(cc4c2CCC4=O)CCC3)s1 (stereo not drawn) [Example 680, 5-(2-Hydroxypropan-2-yl)-N′-((1-oxo-1,2,3,5,6,7-hexahydro-s-indacen-4-yl)carbamoyl)thiazole-2-sulfonimidamide]
6.70 to 7.40 | CC(C)(O)c1cc(S(N)(=O)=NC(=O)Nc2c3c(cc4c2CCC4)CCC3)sc1-c1ccccc1 (single isomer, unassigned) [Example 552, (R) or (S)-N′-((1,2,3,5,6,7-hexahydro-s-indacen-4-yl)(2-4-carbamoyl)-hydroxypropan-2-yl)-5-phenylthiophene-2-sulfonimidamide]
4.52 to 5.30 | CN(C)Cc1ccc(S(N)(=O)=NC(=O)Nc2c3c(cc4c2CC4)CCC3)cc1 (single isomer, unassigned) [Example 581, (S) or (R)-4-((dimethylamino)methyl)-N′-((2,4,5,6-tetrahydro-1H-cyclobuta[f]inden-3-yl)carbamoyl) benzenesulfonimidamide]
